Assay results reported in ChEMBL document CHEMBL1201862, “PubChem BioAssay data set” (2004).
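A five-concentration, 48-hour dose response in 96-well plates underlies each endpoint, interpolated linearly between surrounding concentrations. Here, GI50 denotes the concentration required for 50% inhibition of growth.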 The source made the active and inactive calls. Cut-off read from the data, not from the text of the source: active = GI50 up to about 1.1 µM and inactive = higher.

How the values were obtained:
Test in all cases: NCI-60 cell line screen, 48 h
[1] = test system: MCF7
[2] = test system: BT-549
[3] = test system: K562
[4] = test system: SF-268
[5] = test system: OVCAR-5
[6] = test system: OVCAR-3
[7] = test system: NCI-H226
[8] = test system: UACC-257
[9] = test system: HOP-92
[10] = test system: SK-OV-3
[11] = test system: SK-MEL-5
[12] = test system: SNB-19
[13] = test system: PC-3
[14] = test system: KM12
[15] = test system: UACC-62
[16] = test system: TK-10
[17] = test system: EKVX
[18] = test system: SW-620
[19] = test system: DU-145
[20] = test system: Hs-578T

Measured: GI50

O=C1C=CC(=O)c2c(O)c(N3CCN(c4ccccn4)CC3)cc(O)c21
inactive: [1] 3.11 µM | [2] 10.7 µM | [3] 4.38 µM | [4] 11.9 µM | [5] 46.5 µM | [6] 4.18 µM | [7] 45.7 µM | [8] 4.07 µM | [9] 10.2 µM | [10] 28.1 µM | [11] 1.77 µM | [12] 19.2 µM | [13] 16.2 µM | [14] 11 µM | [15] 5.9 µM | [16] 34.7 µM | [17] 23.9 µM | [18] 3.58 µM | [19] 12.6 µM | [20] 16.1 µM

CCNCCCCNCCCCNCCCCNCCCCNCC
inactive: [1] > 100 µM | [2] > 100 µM | [3] 57 µM | [4] 48.8 µM | [5] 52.5 µM | [6] > 100 µM | [7] > 100 µM | [8] 40.1 µM | [9] 30.8 µM | [10] > 100 µM | [11] 53.5 µM | [12] 99.8 µM | [13] > 100 µM | [14] 76.6 µM | [15] 14.4 µM | [16] 29.7 µM | [17] 53.5 µM | [18] > 100 µM | [19] > 100 µM | [20] 2.84 µM

CC(=O)NC1=C(Sc2ccc(Cl)cc2)C(=O)c2ccccc2C1=O
inactive: [1] 2.08 µM | [2] 4.81 µM | [3] 2.56 µM | [4] 2.53 µM | [5] 11.7 µM | [6] 2.05 µM | [7] 10.6 µM | [8] 5.33 µM | [9] 1.82 µM | [10] 15.7 µM | [11] 1.85 µM | [12] 13.2 µM | [13] 2.77 µM | [14] 4.75 µM | [15] 2.61 µM | [16] 4.42 µM | [17] 5.71 µM | [18] 1.95 µM | [19] 14.6 µM | [20] 10.4 µM

COc1ccc(/N=C2\C(=N/c3ccc(OC)cc3)N(S(=O)(=O)c3ccccc3)C(=S)N2c2ccccc2)cc1
inactive: [1] > 100 µM | [2] > 100 µM | [3] > 100 µM | [4] > 100 µM | [5] > 100 µM | [6] > 100 µM | [7] > 100 µM | [8] > 100 µM | [9] > 100 µM | [10] > 100 µM | [11] > 100 µM | [12] > 100 µM | [13] > 100 µM | [14] > 100 µM | [15] > 100 µM | [16] > 100 µM | [17] > 100 µM | [18] > 100 µM | [19] > 100 µM | [20] > 100 µM

Oc1cccc(-c2cn3cc(Cl)ccc3n2)c1
inactive: [1] 17.3 µM | [2] 51.1 µM | [3] 42.1 µM | [4] 55.1 µM | [5] 72.6 µM | [6] 31.7 µM | [7] 91.4 µM | [8] 25.6 µM | [9] 91.8 µM | [10] 96.6 µM | [11] 16.6 µM | [12] > 100 µM | [13] 29.2 µM | [14] 37.2 µM | [15] 35.1 µM | [16] 35.4 µM | [17] 24.3 µM | [18] > 100 µM | [19] 31 µM | [20] 97.1 µM

Cc1cccc2c1C(=O)C(C1OC(=O)c3ccccc31)C2 (stereo not given)
inactive: [1] > 100 µM | [2] > 100 µM | [3] > 100 µM | [4] 79.6 µM | [5] > 100 µM | [6] > 100 µM | [7] > 100 µM | [8] > 100 µM | [9] > 100 µM | [10] > 100 µM | [11] 95.5 µM | [12] > 100 µM | [13] > 100 µM | [14] > 100 µM | [15] 45.7 µM | [16] > 100 µM | [17] > 100 µM | [18] > 100 µM | [19] > 100 µM | [20] 43.9 µM

COc1cc(C2SCC(=O)N2c2ccc(-c3ccc(-n4c(-c5ccccc5)nc5ccccc5c4=O)cc3)cc2)ccc1O (stereo not given)
inactive: [1] 59.4 µM | [2] > 100 µM | [3] 46.7 µM | [4] 32.7 µM | [5] 48.3 µM | [6] 61.5 µM | [7] 30.9 µM | [8] > 100 µM | [9] 30.9 µM | [10] 16 µM | [11] 26.7 µM | [12] > 100 µM | [13] 40.4 µM | [14] 48.2 µM | [15] 21.8 µM | [16] > 100 µM | [17] > 100 µM | [18] 82 µM | [19] > 100 µM | [20] 40.1 µM

CC(=O)OCC1OC(OC2CC3C(C)(C)C(=O)CC[C@]3(C)C3CC[C@]45C[C@]4(CCC5[C@@H](C)CC(O)C(O)C(C)(C)O)[C@]23C)C(O)C(O)C1O (stereo not given in full)
inactive: [1] 4.78 µM | [2] 12.9 µM | [3] 5.52 µM | [4] 10.1 µM | [5] 16.7 µM | [6] 12.7 µM | [7] 16.5 µM | [8] 11.2 µM | [9] 3.18 µM | [10] 15.5 µM | [11] 7.66 µM | [12] 11.3 µM | [13] 9.82 µM | [14] 6.43 µM | [15] 10.5 µM | [16] 14.6 µM | [17] 16.3 µM | [18] 13.2 µM | [19] 17.1 µM | [20] 10.4 µM

CC1OC(OC2C[C@](O)(C(=O)CBr)Cc3c(O)c4c(c(O)c32)C(=O)c2ccccc2C4=O)C(F)C(O)C1O (stereo not given in full)
inactive: [1] 1.19 µM | [2] 24.7 µM | [3] 2.56 µM | [4] 13.5 µM | [5] 13.5 µM | [6] 13.9 µM | [7] 12.7 µM | [8] 13.3 µM | [9] 4.21 µM | [10] 33.6 µM | [11] 8.95 µM | [12] 5.86 µM | [13] 13.4 µM | [14] 19.6 µM | [15] 10.8 µM | [16] 20.3 µM | [17] 46.6 µM | [18] 2.69 µM | [19] 5.28 µM | [20] 30 µM

CN(C)c1ccccc1CN1CCCN(Cc2ccccc2N(C)C)C1c1ccncc1
inactive: [1] 15.9 µM | [2] 16.9 µM | [3] 7.41 µM | [4] 18.8 µM | [5] 14.1 µM | [6] 14.6 µM | [7] 21.4 µM | [8] 2.42 µM | [9] 3.47 µM | [10] 16.5 µM | [11] 5.36 µM | [12] 12.9 µM | [13] 17.9 µM | [14] 19.1 µM | [15] 14.4 µM | [16] 14.4 µM | [17] 13.7 µM | [18] 16.3 µM | [19] 16.9 µM | [20] 17.7 µM
